Reference: patent US6414030B1, “Use of benzenesulfonyl(thio)ureas for the treatment and prophylaxis of dysfunctions of the autonomous nervous system and use of benzenesulfonyl(thio)ureas in combination with beta-receptors blockers” (Aventis Pharma Deutschland, GmbH, priority 1998, dated 2002)
Marks after values point to notes of the source that are not given here.

Experiments:
[1] = test system: chloroform-induced ventricular fibrillation in the mouse; assay: Chloroform-induced ventricular fibrillation in the mouse (effect on vagal dysfunction), without and with atropine; type: in vivo; conditions: n = 10, untreated control 100%; for Proportion of fibrillation (in %) with atropine (1 mg/kg i.v.): plus atropine 1 mg/kg i.v.
Description: The substances were investigated using the model of chloroform-induced ventricular fibrillation in the mouse (see J. W. Lawson, Antiarrhythmic activity of some isoquinoline derivatives determined by a rapid screening procedure in the mouse; J. Pharmacol. Exp. Ther. 1968, 160, 22-31). […] After 30 minutes, the mouse was anesthetized with chloroform in a beaker. As soon as, in deep anesthesia, respiratory arrest had occurred (toxic anesthesia stage), the thorax of the animal was opened using a pair of scissors and the heartbeat was inspected visually. Here, it is possible to determine on first sight whether the heart is beating, fibrillating or arrested. The respiratory arrest triggered by chloroform leads, via absolute anoxia (lack of oxygen) in combination with a direct stimulating effect of chloroform on the sympathetic nervous system, to a potent stimulation of the sympathicus, which in turn in combination with the energy deficit in the heart caused by lack of oxygen results in fatal arrhythmia, i.e. ventricular fibrillation. This toxic chloroform anesthesia led to ventricular fibrillation in 100% of the untreated mice (control).

[2] = test system: chloroform-induced ventricular fibrillation in the mouse; assay: Chloroform-induced ventricular fibrillation in the mouse: combinations of compounds of the formula I with beta-receptor blockers; type: in vivo; conditions: n = 30, untreated control 100%
Description: The substances were investigated using the model of chloroform-induced ventricular fibrillation in the mouse (see J. W. Lawson, Antiarrhythmic activity of some isoquinoline derivatives determined by a rapid screening procedure in the mouse; J. Pharmacol. Exp. Ther. 1968, 160, 22-31). The test substance was dissolved in a mixture of dimethyl sulfoxide (DMSO) and 10% strength sodium bicarbonate solution and administered intraperitoneally (i.p.). After 30 minutes, the mouse was anesthetized with chloroform in a beaker. As soon as, in deep anesthesia, respiratory arrest had occurred (toxic anesthesia stage), the thorax of the animal was opened using a pair of scissors and the heartbeat was inspected visually. Here, it is possible to determine on first sight whether the heart is beating, fibrillating or arrested. The respiratory arrest triggered by chloroform leads, via absolute anoxia (lack of oxygen) in combination with a direct stimulating effect of chloroform on the sympathetic nervous system, to a potent stimulation of the sympathicus, which in turn in combination with the energy deficit in the heart caused by lack of oxygen results in fatal arrhythmia, i.e. ventricular fibrillation. This toxic chloroform anesthesia led to ventricular fibrillation in 100% of the untreated mice (control).
The active compounds were administered i.v. (intravenously) or i.p. (intraperitoneally). In one experiment, 10 mg/kg of 1-[[5-[2-(5-chloro-2-methoxybenzamido)ethyl]-2-methoxyphenyl]sulfonyl]-3-methylthiourea sodium salt (see Example 4; dissolved in DMSO/10% strength sodium bicarbonate solution) were combined with 0.3 mg/kg of propanolol (dissolved in distilled water), a standard beta-blocker. […] The proportion of fibrillation could be lowered further than with the individual substances, in a statistically significant manner. For comparison, a 10 times higher dose of 3 mg/kg of propanolol was used. […] In another experiment, 3 mg/kg of 1-[[5-[2-(5-tert-butyl-2-methoxybenzamido)ethyl]-2-methoxyphenyl]sulfonyl]-3-methylthiourea (Example 1) and 3 mg/kg of atenolol were combined in an analogous manner.

[3] = 3 mg/kg i.p., chloroform anesthesia after 30 minutes

## CNC(=S)NS(=O)(=O)c1cc(CCNC(=O)c2cc(C(C)C)ccc2OC)ccc1OC [Example 3, 1-[[5-[2-(5-lsopropyl-2-methoxybenzamido)ethyl]-2-methoxyphenyl]sulfonyl]-3-methylthiourea]
[1]; [3]
  Proportion of fibrillation (in %) without atropine: 60%#

## CNC(=S)NS(=O)(=O)c1cc(CCNC(=O)c2cc(C(C)(C)C)ccc2OC)ccc1OC [Example 1, 1-[[5-[2-(5-tert-Butyl-2-methoxybenzamido)ethyl]-2-methoxyphenyl]sulfonyl]-3-methylthiourea]
[1]; [3]
  Proportion of fibrillation (in %) without atropine: 30%#
[1]; 3 mg/kg i.p.
  Proportion of fibrillation (in %) with atropine (1 mg/kg i.v.): 90%*
[2]; single substance 3 mg/kg i.p.
  Proportion of fibrillation in %: 53%*

## CNC(=S)NS(=O)(=O)c1cc(CCNC(=O)c2cc(Cl)ccc2OC)ccc1OCCOC [Example 5, 1-[[5-[2-(5-Chloro-2-methoxybenzamido)ethyl]-2-(2-methoxyethoxy)phenyl]sulfonyl]-3-methylthiourea]
[1]; 10 mg/kg i.p.
  Proportion of fibrillation (in %) without atropine: 60%#
  Proportion of fibrillation (in %) with atropine (1 mg/kg i.v.): 100%*

## C[N+](C)(C)CCOC(N)=O [carbachol, reference compound]
[1]; 60 μg/kg i.v.
  Proportion of fibrillation (in %) without atropine: 60%#
  Proportion of fibrillation (in %) with atropine (1 mg/kg i.v.): 100%*

## CC(C)NCC(O)COc1ccc(CC(N)=O)cc1 (stereo not drawn) [atenolol]
[2]; single substance 3 mg/kg i.v.
  Proportion of fibrillation in %: 48%*

## CC(C)NCC(O)COc1cccc2ccccc12 (stereo not drawn) [propranolol]
[2]; single substance 0.3 mg/kg i.v.
  Proportion of fibrillation in %: 37%*
[2]; single substance 3 mg/kg i.v.
  Proportion of fibrillation in %: 17%*

## CNC(=O)NS(=O)(=O)c1cc(CCNC(=O)c2cc(C(C)(C)C)ccc2OC)ccc1OC [Example 2, 1-[[5-[2-(5-tert-Butyl-2-methoxybenzamido)ethyl]-2-methoxyphenyl]sulfonyl]-3-methylurea]
[1]; 1 mg/kg i.p.
  Proportion of fibrillation (in %) without atropine: 60%#
  Proportion of fibrillation (in %) with atropine (1 mg/kg i.v.): 100%*

## CNC(=S)NS(=O)(=O)c1cc(CCNC(=O)c2cc(Cl)ccc2OC)ccc1OC.[Na] [1-[[5-[2-(5-chloro-2-methoxybenzamido)ethyl]-2-methoxyphenyl]sulfonyl]-3-methylthiourea sodium salt]
[1]; 10 mg/kg i.p.
  Proportion of fibrillation (in %) without atropine: 50%#
  Proportion of fibrillation (in %) with atropine (1 mg/kg i.v.): 90%*
[2]; single substance 10 mg/kg i.v.
  Proportion of fibrillation in %: 50%*

## CNC(=O)Oc1ccc2c(c1)[C@]1(C)CCN(C)[C@@H]1N2C [physostigmine, reference compound]
[1]; 1 mg/kg s.c.
  Proportion of fibrillation (in %) without atropine: 70%#
  Proportion of fibrillation (in %) with atropine (1 mg/kg i.v.): 100%*
